Here are results for 10 compounds from ChEMBL document CHEMBL1201862, “PubChem BioAssay data set” (2004).

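Step 1: Grow cells in 96-well plates. Step 2: Expose to compound for 48 hours at 5 concentrations. Step 3: Interpolate endpoints linearly; if unreached, use highest concentration. GI50 marks 50% less growth.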 The source made the active and inactive calls. Cut-off read from the data, not from the text of the source: active = GI50 up to about 1.1 µM and inactive = higher.

Some test systems named below: Malme-3M; HOP-92; T47D; CAKI-1; MOLT-4; KM12; HL-60; SK-MEL-2; SF-539; SNB-75; SR; SN12C; NCI-H23; MDA-N; HT-29; A549; MDA-MB-231; EKVX; SK-MEL-28.
Holding throughout (assay): inhibition of tumour cell growth, NCI panel, 48 h

With `CCOC(=O)P(=O)(O)c1ccc(N(C)Cc2ccccc2)cc1`, the GI50 in the experiment on Malme-3M, in the experiment with HOP-92, in the experiment with T47D, in the experiment with CAKI-1, with MOLT-4 and in the experiment with KM12 was > 100 µM (inactive) in each case. The GI50 in the experiment with HL-60, in the experiment on SK-MEL-2, in the experiment with SF-539, with SNB-75, in the experiment with SR and with SN12C was > 100 µM (inactive) each time. Further, the GI50 in the experiment on NCI-H23, in the experiment on MDA-N, with HT-29, in the experiment with A549, in the experiment with MDA-MB-231 and with EKVX was > 100 µM (inactive) in each case. In the experiment on SK-MEL-28, the GI50 is > 100 µM (inactive).

For the compound `CCOC(=O)C(=O)C(CCC(=O)c1ccc2ccccc2c1O)C(=O)OCC` (stereo not drawn), the GI50 in the experiment with Malme-3M, in the experiment with HOP-92, with T47D, in the experiment on CAKI-1, with MOLT-4 and with KM12 was > 100 µM (inactive) in each case. Also, the GI50 with HL-60, in the experiment with SK-MEL-2, in the experiment on SF-539, with SNB-75, in the experiment with SR and in the experiment on SN12C was > 100 µM (inactive) each time. In addition, the GI50 with NCI-H23, in the experiment on MDA-N, in the experiment on HT-29, in the experiment on A549, with MDA-MB-231 and with EKVX was > 100 µM (inactive) in each case. The GI50 with SK-MEL-28 was > 100 µM (inactive).

For `CSC1=C(C)S/C(=C\c2ccc(/C=C3\SC(C)=C(SC)S3)cc2)S1`, the GI50 with Malme-3M was > 100 µM (inactive); in the experiment with HOP-92, 39.3 µM (inactive); in the experiment with T47D, > 100 µM (inactive); with CAKI-1, > 100 µM (inactive); with MOLT-4, > 100 µM (inactive); in the experiment with KM12, > 100 µM (inactive). Besides, the GI50 in the experiment with HL-60 was > 100 µM (inactive); in the experiment with SK-MEL-2, > 100 µM (inactive); in the experiment on SF-539, 5.33 µM (inactive); in the experiment on SNB-75 it was 41.6 µM (inactive); in the experiment on SR it was > 100 µM (inactive); in the experiment on SN12C it was > 100 µM (inactive). Also, the GI50 in the experiment with NCI-H23, in the experiment with MDA-N, with HT-29, with A549, in the experiment on MDA-MB-231 and in the experiment with EKVX was > 100 µM (inactive) each time. In the experiment on SK-MEL-28, the GI50 was > 100 µM (inactive).

As for `O=C1CCCc2cc3c(cc21)CC1(C3)Cc2cc3c(cc2C1)C(=O)CCC3`, the GI50 in the experiment with Malme-3M is 0.798 µM (active); in the experiment with HOP-92, 6.78 µM (inactive); in the experiment on T47D, 9.48 µM (inactive); with CAKI-1, 1.91 µM (inactive); with MOLT-4 it was 1 µM (active); with KM12, 0.493 µM (active). The GI50 in the experiment on HL-60 was 0.368 µM (active); with SK-MEL-2, 1.57 µM (inactive); in the experiment with SF-539 it was 1.12 µM (active); in the experiment with SNB-75 it was 2.2 µM (inactive); in the experiment with SR it was 0.106 µM (active); in the experiment with SN12C, 4.46 µM (inactive). Moreover, the GI50 in the experiment on NCI-H23 is 2.2 µM (inactive); with MDA-N, 0.214 µM (active); in the experiment with HT-29, 0.743 µM (active); in the experiment with A549, 1.39 µM (inactive); in the experiment with MDA-MB-231 it was 3.16 µM (inactive); in the experiment on EKVX, 5.48 µM (inactive). In addition, the GI50 with SK-MEL-28 is 3.23 µM (inactive).

In the case of `CC(C)(C)NCc1cc(Nc2ccnc3cc(Cl)ccc23)cc(-c2ccc(Cl)cc2)c1O`, the GI50 in the experiment on Malme-3M was 1.84 µM (inactive); with HOP-92 it was 1.87 µM (inactive); in the experiment with T47D it was 3.27 µM (inactive); in the experiment with CAKI-1, 2.99 µM (inactive); in the experiment with MOLT-4, 1.82 µM (inactive); in the experiment on KM12 it was 3.5 µM (inactive). In addition, the GI50 in the experiment with HL-60 is 1.97 µM (inactive); with SK-MEL-2 it was 2.24 µM (inactive); in the experiment on SF-539, 1.85 µM (inactive); in the experiment with SNB-75, 2.02 µM (inactive); in the experiment on SR it was 1.21 µM (inactive); in the experiment on SN12C, 3.11 µM (inactive). Moreover, the GI50 is 3.64 µM (inactive) in the experiment on NCI-H23; 1.68 µM (inactive) in the experiment on MDA-N; 1.87 µM (inactive) in the experiment on HT-29; 5.4 µM (inactive) in the experiment on A549; 3 µM (inactive) in the experiment on MDA-MB-231; 3.72 µM (inactive) in the experiment with EKVX. Further, in the experiment with SK-MEL-28, the GI50 is 1.72 µM (inactive).

Turning to `O=[N+]([O-])c1cccc(-c2ncc3c(n2)-c2ccccc2C3)c1`, the GI50 in the experiment on Malme-3M is > 100 µM (inactive); in the experiment with HOP-92, > 100 µM (inactive); in the experiment with T47D, > 100 µM (inactive); in the experiment with CAKI-1, 42.7 µM (inactive); with MOLT-4, > 100 µM (inactive); in the experiment with KM12, > 100 µM (inactive). Further, the GI50 is > 100 µM (inactive) in the experiment with HL-60; > 100 µM (inactive) in the experiment with SK-MEL-2; > 100 µM (inactive) in the experiment on SF-539; 23.1 µM (inactive) with SNB-75; > 100 µM (inactive) in the experiment with SR; > 100 µM (inactive) in the experiment with SN12C. In addition, the GI50 is > 100 µM (inactive) in the experiment on NCI-H23; > 100 µM (inactive) in the experiment with MDA-N; > 100 µM (inactive) in the experiment on HT-29; > 100 µM (inactive) in the experiment with A549; 20.5 µM (inactive) in the experiment with MDA-MB-231; 94.4 µM (inactive) with EKVX. Besides, in the experiment with SK-MEL-28, the GI50 is > 100 µM (inactive).

Regarding `O=C(Nc1nc(C23CC4CC(CC(C4)C2)C3)cs1)c1cc2cc(Br)cc(Br)c2oc1=O`, the GI50 in the experiment on Malme-3M is > 100 µM (inactive); with HOP-92, 46 µM (inactive); in the experiment on T47D, > 100 µM (inactive); with CAKI-1 it was > 100 µM (inactive); in the experiment on MOLT-4 it was 50.1 µM (inactive); with KM12 it was > 100 µM (inactive). In addition, the GI50 in the experiment on HL-60 was 65.5 µM (inactive); in the experiment on SK-MEL-2 it was 51.5 µM (inactive); in the experiment on SF-539, 51.8 µM (inactive); in the experiment on SNB-75, 26.9 µM (inactive); in the experiment with SR, 32.3 µM (inactive); in the experiment on SN12C it was 31.8 µM (inactive). The GI50 was > 100 µM (inactive) in the experiment with NCI-H23; 87.5 µM (inactive) with MDA-N; > 100 µM (inactive) in the experiment on HT-29; 53 µM (inactive) in the experiment on A549; 52.6 µM (inactive) with MDA-MB-231; 39.4 µM (inactive) with EKVX. In addition, in the experiment on SK-MEL-28, the GI50 was > 100 µM (inactive).

As to `c1ccc(CNc2nncc3[nH]cnc23)cc1`, the GI50 in the experiment with Malme-3M was 59.6 µM (inactive); with HOP-92, 69.8 µM (inactive); in the experiment with T47D, > 100 µM (inactive); with CAKI-1, > 100 µM (inactive); with MOLT-4, > 100 µM (inactive); in the experiment on KM12, > 100 µM (inactive). For the same compound, the GI50 with HL-60, with SK-MEL-2, in the experiment with SF-539, in the experiment on SNB-75, in the experiment with SR and in the experiment on SN12C was > 100 µM (inactive) each time. For the same compound, the GI50 in the experiment on NCI-H23, in the experiment on MDA-N, in the experiment with HT-29, in the experiment with A549, in the experiment on MDA-MB-231 and in the experiment with EKVX was > 100 µM (inactive) each time. Besides, the GI50 in the experiment with SK-MEL-28 is > 100 µM (inactive).

As for `Cc1cc(C)nc(NS(=O)(=O)c2ccc(NNc3c4ccccc4nc4c(C(=O)Nc5ccc(S(=O)(=O)Nc6cc(C)on6)cc5)cccc34)cc2)n1`, the GI50 with Malme-3M is 53.7 µM (inactive); with HOP-92, 23.7 µM (inactive); in the experiment with T47D, 33.5 µM (inactive); with CAKI-1, 87.5 µM (inactive); in the experiment on MOLT-4 it was 32.5 µM (inactive); with KM12, 39.4 µM (inactive). Also, the GI50 in the experiment on HL-60 was 30.8 µM (inactive); in the experiment on SK-MEL-2, 22.7 µM (inactive); in the experiment with SF-539, 34.9 µM (inactive); in the experiment with SNB-75, 30.9 µM (inactive); with SR it was 24.9 µM (inactive); in the experiment with SN12C, 37 µM (inactive). The GI50 in the experiment on NCI-H23 is 46.8 µM (inactive); in the experiment on MDA-N it was 44.2 µM (inactive); in the experiment with HT-29, 23.2 µM (inactive); with A549, > 100 µM (inactive); with MDA-MB-231 it was 33.1 µM (inactive); in the experiment with EKVX, 19.2 µM (inactive).

`COc1ccc2[nH]c(CCNC(=O)c3cc([N+](=O)[O-])cc([N+](=O)[O-])c3)cc2c1`: the GI50 is > 100 µM (inactive) in the experiment on Malme-3M; 21.2 µM (inactive) in the experiment with HOP-92; 29.9 µM (inactive) in the experiment with T47D; 26.1 µM (inactive) with CAKI-1; > 100 µM (inactive) with MOLT-4; > 100 µM (inactive) in the experiment with KM12. Also, the GI50 in the experiment with HL-60 was > 100 µM (inactive); in the experiment on SK-MEL-2 it was 65.8 µM (inactive); in the experiment on SF-539 it was 29.8 µM (inactive); in the experiment with SNB-75, 19.4 µM (inactive); in the experiment with SR, > 100 µM (inactive); with SN12C, 56 µM (inactive). Also, the GI50 was 47.9 µM (inactive) in the experiment with NCI-H23; > 100 µM (inactive) with MDA-N; > 100 µM (inactive) with HT-29; > 100 µM (inactive) in the experiment with A549; 25.4 µM (inactive) in the experiment on MDA-MB-231; > 100 µM (inactive) in the experiment with SK-MEL-28.
